Data from US20250066389A1, “HETEROCYCLIC AMIDES AND METHODS OF USING THE SAME” (Rgenta Therapeutics, Inc., priority 2021, published 2025).
Counter-ions that a name gives are not always drawn.

Test system: PMS1
Test: Mini-Gene Reporter Assay—PMS1 (firefly luciferase mini-gene reporter transiently transfected into HEK293 cells)
Assay type: cell-based
Details: Homo sapiens, mini-gene firefly luciferase reporter in HEK293 cells; for activation at 5 µM: read-out: PMS1 % Effect at 5 uM
Excerpt: Example 76. Mini-Gene Reporter Assay—PMS1
Mini-gene reporter constructs for each target site can be constructed by first PCR amplifying the region-of-interest including the sequence of the alternatively skipped, sequences of the immediate upstream and downstream introns, and sequences of the immediate upstream and downstream exons. Then the 3′ end of the amplified sequence can be ligated to a firefly luciferase reporter gene and cloned into the pcDNA3.1 vector backbone. The final reporter construct can be transiently transfected into HEK293 cells using Lipofectamine 3000 transfection reagents. Compounds that can induce the inclusion of the skipped exon in the reporter construct would increase the reporter firefly luciferase activity.
Test compounds may be diluted in duplicates and dispensed into an assay plate. Transient mini-gene reporter cell line stock is resuspended and dispensed into the assay plate. Assay plates are then centrifuged and incubated. A luciferase reagent (e.g. ONE-Glo firefly luciferase reagent from Promega®) may be added to the assay plate and the luminescence (RLU) signals recorded. EC50 values may be determined by curve fitting in Levenberg-Marquardt algorithm.
In Table D below, A indicates a IC50 (μM)<1 μM, B indicates a IC50 (μM) 1 μM to <10 μM, and C indicates a IC50 (μM) 10 μM to <50 μM. In Table D below, A indicates a >75% Effect at 5 μM μM. B indicates a 50 to <75% Effect at 5 μM μM, and C indicates a <50% Effect at 5 μM.

IC50 | Structure (SMILES) | activation at 5 µM
– | CCOc1cc2nn(C)cc2cc1C(=O)Nc1cnc(N[C@@H]2C[C@H]3CC[C@@H](C2)N3)cn1 [Compound 366] | > 75%
– | COc1cc2nn(C)cc2cc1C(=O)Nc1ccc(N2CC3CNCC3C2)cc1F (centres unmarked) [Compound 117, N-(2-fluoro-4-(hexahydropyrrolo[3,4-c]pyrrol-2(1H)-yl)phenyl)-6-methoxy-2-methyl-2H-indazole-5-carboxamide] | < 50%
– | CCOc1cc2nn(C)cc2cc1C(=O)Nc1cnc(N2CC34CCCC3(CNC4)C2)cn1 (centres unmarked) [Compound 320] | < 50%
– | CCOc1cc2nn(C)cc2cc1C(=O)Nc1cnc(N2CCC3(CC2)CNCCO3)nc1 [Compound 452] | < 50%
1000 to 10000 nM | COc1cn2nc(C)cc2cc1C(=O)Nc1ccc(N2CCN[C@@H](C)C2)nn1 [Compound 726, (S)-6-methoxy-2-methyl-N-(6-(3-methylpiperazin-1-yl)pyridazin-3-yl)pyrazolo[1,5-a]pyridine-5-carboxamide hydrochloride] | –
– | CCOc1cc2nn(C)cc2cc1C(=O)Nc1ccc(N2C[C@@H](C)N[C@@H](C)C2)nn1 [Compound 751, N-(6-((3S,5R)-3,5-dimethylpiperazin-1-yl)pyridazin-3-yl)-6-ethoxy-2-methyl-2H-indazole-5-carboxamide hydrochloride] | > 75%
– | CCOc1cn2nc(C)cc2cc1C(=O)Nc1cnc(N2CCC(N)C2)cn1 (centres unmarked) [Compound 556] | > 75%
< 1000 nM | CCOc1cc2nc(C)cn2cc1C(=O)Nc1ccc(N2CCNC(CC(F)F)C2)nn1 (centres unmarked) [Compound 228] | –
< 1000 nM | COc1cc2nc(C)cn2cc1C(=O)Nc1ccc(N2CCN[C@@H](C)C2)nn1 [Compound 713, (S)-7-methoxy-2-methyl-N-(6-(3-methylpiperazin-1-yl)pyridazin-3-yl)imidazo[1,2-a]pyridine-6-carboxamide hydrochloride] | –
– | CCOc1cc2nn(C)cc2cc1C(=O)Nc1cnc(N[C@@H]2CNC[C@@H](F)C2)nc1 [Compound 386] | < 50%
– | CCOc1cn2nc(C)cc2cc1C(=O)Nc1cnc(N2CC(N)CC(O)C2)cn1 (centres unmarked) [Compound 535] | > 75%
1000 to 10000 nM | CCOc1cc2nc(C)cn2cc1C(=O)Nc1ccc(N2CC3(CC(NC(C)C)CO3)C2)nn1 (centres unmarked) [Compound 298] | –
– | Cc1cn2cc(C(=O)Nc3ccc(N4CCNCC4)cc3F)ncc2n1 [Compound 101, N-(2-fluoro-4-(piperazin-1-yl)phenyl)-2-methylimidazo[1,2-a]pyrazine-6-carboxamide HCl Salt] | < 50%
1000 to 10000 nM | CCOc1cc2nc(C)cn2cc1C(=O)Nc1ccc(N2CCCC(CNC)C2)nn1 (centres unmarked) [Compound 278] | –
1000 to 10000 nM | CCOc1cc2nc(C)cn2cc1C(=O)Nc1ccc(N2C[C@@H]3CCCN[C@@H]3C2)nn1 [Compound 260] | –
– | CCOc1cc2nn(C)cc2cc1C(=O)Nc1cnc(NCC2CNC(C)(C)C2)nc1 (centres unmarked) [Compound 408] | < 50%
– | CCOc1cc2nn(C)cc2cc1C(=O)Nc1cnc(N2[C@H](CN)C[C@@H]3CCC[C@@H]32)cn1 [Compound 325] | < 50%
– | CCOc1cc2nc(C)cn2cc1C(=O)Nc1cnc(N2CCC3(CC2)CNCCO3)cn1 [Compound 683] | < 50%
– | CCOc1cn2nc(C)cc2cc1C(=O)Nc1cnc(N2CCCNCC2)cn1 [Compound 561] | > 75%
– | CCOc1cc2nn(C)cc2cc1C(=O)Nc1cnc(NCc2nn(C)c3c2CNCC3)nc1 [Compound 388] | < 50%

IC50 | Structure (SMILES) | activation at 5 µM
– | CCOc1cc2nn(C)cc2cc1C(=O)Nc1cnc(NCC2CCCNC2)nc1 (centres unmarked) [Compound 483] | < 50%
– | CCOc1cc2nn(C)cc2cc1C(=O)Nc1cnc(N2C[C@H]3CNC[C@H]3C2)cn1 [Compound 363] | > 75%
– | CCOc1cn2nc(C)cc2cc1C(=O)Nc1cnc(N2CCNC(CC(F)(F)F)C2)cn1 (centres unmarked) [Compound 490] | 50 to 75%
1000 to 10000 nM | CCOc1nc2nc(C)cn2cc1C(=O)Nc1cnc(N2CCN[C@@H](C)C2)cn1 [Compound 722, (S)-7-ethoxy-2-methyl-N-(5-(3-methylpiperazin-1-yl)pyrazin-2-yl)imidazo[1,2-a]pyrimidine-6-carboxamide formate] | –
– | CCOc1cc2nn(C)cc2cc1C(=O)Nc1cnc(N2CC3(CNCCO3)C2)cn1 [Compound 337] | < 50%
– | CCOc1cc2nn(C)cc2cc1C(=O)Nc1cnc(NCC2CCNCC2(F)F)nc1 (centres unmarked) [Compound 431] | < 50%
< 1000 nM | CCOc1cc2nc(C)cn2cc1C(=O)Nc1ccc(N2CCNC3(CC3)C2)cc1F [Compound 704, N-(4-4,7-diazaspiro[2.5]octan-7-yl-2-fluorophenyl)-7-ethoxy-2-methylimidazo[1,2-a]pyridine-6-carboxamide] | –
– | CCOc1cn2nc(C)cc2cc1C(=O)Nc1cnc(N2CC[C@@H](C)[C@@H](NC)C2)nc1 [Compound 617] | < 50%
< 1000 nM | CCc1nc(C(=O)Nc2ccc(N3CCN[C@@H](C)C3)nn2)cn2cc(C)nc12 [Compound 214, 8-ethyl-2-methyl-N-{6-[(3S)-3-methylpiperazin-1-yl]pyridazin-3-yl}imidazo[1,2-a]pyrazine-6-carboxamide] | –
– | CCOc1cc2nn(C)cc2cc1C(=O)Nc1cnc(NC[C@@H]2CCNC2)cn1 [Compound 364] | 50 to 75%
– | COc1cc2nc(C)cn2cc1C(=O)Nc1ccc(N2CCC3(CCNC3)C2)cc1F (centres unmarked) [Compound 145, N-(2-fluoro-4-(2,7-diazaspiro[4.4]nonan-2-yl)phenyl)-7-methoxy-2-methylimidazo[1,2-a]pyridine-6-carboxamide] | < 50%
– | CCOc1cn2nc(C)cc2cc1C(=O)Nc1cnc(NCC(N)c2cc(F)cc(Cl)c2)nc1 (centres unmarked) [Compound 569] | < 50%
1000 to 10000 nM | CCNC1CCCN(c2ccc(NC(=O)c3cn4cc(C)nc4cc3OCC)nn2)C1 (centres unmarked) [Compound 251] | –
< 1000 nM | CCOc1cc2nn(C)cc2cc1C(=O)Nc1cnc(N2CCN[C@@H](CC)C2)cn1 [Compound 716, (S)-6-ethoxy-N-(5-(3-ethylpiperazin-1-yl)pyrazin-2-yl)-2-methyl-2H-indazole-5-carboxamide HCl Salt] | –
– | CCOc1cn2nc(C)cc2cc1C(=O)Nc1cnc(N2CCN(CC3CCCNC3)CC2)cn1 (centres unmarked) [Compound 524] | < 50%
– | CCOc1cc2nc(C)cn2cc1C(=O)Nc1cnc(NCc2cccc(CNC)c2)cn1 [Compound 679] | < 50%
1000 to 10000 nM | CCOc1cc2nc(C)cn2cc1C(=O)Nc1ccc(N2CCCC(NC)C2)nn1 (centres unmarked) [Compound 283] | –
1000 to 10000 nM | CCOc1cc2nn(C)cc2cc1C(=O)Nc1ccc(N2CCN(C)[C@@H](C)C2)nn1 [Compound 299, (S)—N-(6-(3,4-dimethylpiperazin-1-yl)pyridazin-3-yl)-6-ethoxy-2-methyl-2H-indazole-5-carboxamide hydrochloride] | –
1000 to 10000 nM | CCOc1cc2nc(C)cn2cc1C(=O)Nc1ccc(N2CCNCC3(CC3)C2)nn1 [Compound 230] | –

Structure (SMILES) | IC50 | activation at 5 µM
C[C@H]1CN(c2ccc(NC(=O)c3cc4cn(C)nc4cc3OC3CCC3)nn2)CCN1 [Compound 209, (S)-6-cyclobutoxy-2-methyl-N-(6-(3-methylpiperazin-1-yl)pyridazin-3-yl)-2H-indazole-5-carboxamide HCl Salt] | < 1000 nM | –
CCOc1cc2nc(C)cn2cc1C(=O)Nc1ccc(C2=CCNCC2)nn1 [Compound 709, 7-ethoxy-2-methyl-N-(6-(1,2,3,6-tetrahydropyridin-4-yl)pyridazin-3-yl)imidazo[1,2-a]pyridine-6-carboxamide hydrochloride] | < 1000 nM | –
